Laboratory results from patent US8497367B2, “Sucralose purification process” (Tate & Lyle Technology Limited, priority 2008, dated 2013).

Experiment: Distribution coefficient K of sucralose between ethyl acetate (light phase) and aqueous DMAHCl/NaCl solution (heavy phase)
Type: physicochemical
Conditions: about 37 g ethyl acetate
Protocol: The solutions were all clear and colorless at room temperature.
Each sample was shaken with about 37 g of ethyl acetate (EA). The mixture was allowed to settle, resulting in the formation of a heavy phase (aqueous) and a light phase (EA based). The weights of these respective phases were recorded and each phase was analysed for its sucralose content. The dry solids content of each phase was also measured by evaporation to dryness (moisture balance).
From the data presented, it is possible to calculate the distribution coefficient K for each experiment, where K is defined as: K=(Wt % Sucralose in light phase)/(Wt % sucralose in heavy phase)

OC[C@H]1O[C@H](O[C@]2(CCl)O[C@H](CCl)[C@@H](O)[C@@H]2O)[C@H](O)[C@@H](O)[C@H]1Cl [Sucralose, 4,1′,6′-trichloro-4,1′,6′-trideoxygalactosucrose]
Calculated K / Actual K = (Wt % Sucralose in light phase)/(Wt % sucralose in heavy phase) (Exp #3, feed wt % on water: DMAHCL 0.36%, NaCl 9.87%, sucralose 27.58%): 1.38
Calculated K / Actual K = (Wt % Sucralose in light phase)/(Wt % sucralose in heavy phase) (Exp #4, feed wt % on water: DMAHCL 0.41%, NaCl 2.10%, sucralose 27.06%): 0.93
Calculated K / Actual K = (Wt % Sucralose in light phase)/(Wt % sucralose in heavy phase) (Exp #5, feed wt % on water: DMAHCL 5.07%, NaCl 9.75%, sucralose 27.31%): 1.09
Calculated K / Actual K = (Wt % Sucralose in light phase)/(Wt % sucralose in heavy phase) (Exp #8, feed wt % on water: DMAHCL 4.99%, NaCl 2.04%, sucralose 27.01%): 0.83
Calculated K / Actual K = (Wt % Sucralose in light phase)/(Wt % sucralose in heavy phase) (Exp #9, feed wt % on water: DMAHCL 2.55%, NaCl 5.15%, sucralose 13.98%): 0.76
